{
  "source": "patent US12459918B2",
  "about": "“Isoquinolinone derivatives serving as rock protein kinase inhibitors and use thereof” (GUANGZHOU OCUSUN OPHTHALMIC BIOTECHNOLOGY CO., LTD., priority 2019, dated 2025)",
  "test_system": "New Zealand rabbits with normal intraocular pressure",
  "assay": "Intraocular pressure reduction experiment in New Zealand rabbits with normal intraocular pressure",
  "format": "in vivo",
  "details": "for Intraocular pressure in the left eye: left eye (saline or solvent); for Reduction magnitude of intraocular pressure: left minus right eye",
  "source_text": "Experimental Example 2. Intraocular Pressure Reduction Experiment in New Zealand Rabbits with Normal Intraocular Pressure\nRabbits with normal intraocular pressure were adopted to screen intraocular pressure reduction actions of the potential compounds by eye-drop administration.\nMale New Zealand rabbits, aged 97-127 days, weighted 2.65-3.5 kg, purchased from PizhouDongfang Breeding Co. Ltd.\nThe male New Zealand rabbits were randomly divided into 8 rabbits/per group using a computer-generated randomization method Animals in each group were eye-dropped with different test samples in the right eye, and normal saline or solvent in the left eye, and the volume of the administration was both 50 μL/eye. The intraocular pressure of the animals was measured before administration and in 1, 2, 4, 6, 8 and 10 hours after the administration, respectively.",
  "data": [
    {"smiles": "Cc1cn(COC(=O)c2ccccc2)c(=O)c2cccc(S(=O)(=O)N3CCC(N)C3)c12", "note": "(stereo not drawn) [Compound 60]", "values": [
      {"measurement": "Intraocular pressure in the left eye", "setting": "2.5 mg/mL group, 1 hour after administration", "value": 11.63, "unit": "mmHg"},
      {"measurement": "Intraocular pressure in the left eye", "setting": "2.5 mg/mL group, 2 hours after administration", "value": 11.58, "unit": "mmHg"},
      {"measurement": "Intraocular pressure in the left eye", "setting": "2.5 mg/mL group, 4 hours after administration", "value": 12.83, "unit": "mmHg"},
      {"measurement": "Intraocular pressure in the left eye", "setting": "2.5 mg/mL group, 6 hours after administration", "value": 12.38, "unit": "mmHg"},
      {"measurement": "Intraocular pressure in the left eye", "setting": "2.5 mg/mL group, 8 hours after administration", "value": 12.29, "unit": "mmHg"},
      {"measurement": "Intraocular pressure in the left eye", "setting": "2.5 mg/mL group, 10 hours after administration", "value": 14.33, "unit": "mmHg"},
      {"measurement": "Intraocular pressure in the left eye", "setting": "2.5 mg/mL group, before administration", "value": 12.13, "unit": "mmHg"},
      {"measurement": "Intraocular pressure in the right eye", "setting": "2.5 mg/mL in right eye, 1 hour after administration", "value": 8.38, "unit": "mmHg"},
      {"measurement": "Intraocular pressure in the right eye", "setting": "2.5 mg/mL in right eye, 2 hours after administration", "value": 7.58, "unit": "mmHg"},
      {"measurement": "Intraocular pressure in the right eye", "setting": "2.5 mg/mL in right eye, 4 hours after administration", "value": 9.04, "unit": "mmHg"},
      {"measurement": "Intraocular pressure in the right eye", "setting": "2.5 mg/mL in right eye, 6 hours after administration", "value": 9.88, "unit": "mmHg"},
      {"measurement": "Intraocular pressure in the right eye", "setting": "2.5 mg/mL in right eye, 8 hours after administration", "value": 11.33, "unit": "mmHg"},
      {"measurement": "Intraocular pressure in the right eye", "setting": "2.5 mg/mL in right eye, 10 hours after administration", "value": 13.71, "unit": "mmHg"},
      {"measurement": "Intraocular pressure in the right eye", "setting": "2.5 mg/mL in right eye, before administration", "value": 12.38, "unit": "mmHg"},
      {"measurement": "Reduction magnitude of intraocular pressure", "setting": "2.5 mg/mL, 1 hour after administration", "value": 3.25, "unit": "mmHg"},
      {"measurement": "Reduction magnitude of intraocular pressure", "setting": "2.5 mg/mL, 2 hours after administration", "value": 4, "unit": "mmHg"},
      {"measurement": "Reduction magnitude of intraocular pressure", "setting": "2.5 mg/mL, 4 hours after administration", "value": 3.79, "unit": "mmHg"},
      {"measurement": "Reduction magnitude of intraocular pressure", "setting": "2.5 mg/mL, 6 hours after administration", "value": 2.5, "unit": "mmHg"},
      {"measurement": "Reduction magnitude of intraocular pressure", "setting": "2.5 mg/mL, 8 hours after administration", "value": 0.96, "unit": "mmHg"},
      {"measurement": "Reduction magnitude of intraocular pressure", "setting": "2.5 mg/mL, 10 hours after administration", "value": 0.62, "unit": "mmHg"},
      {"measurement": "Reduction magnitude of intraocular pressure", "setting": "2.5 mg/mL, before administration", "value": "−0.25", "unit": "mmHg"},
      {"measurement": "Intraocular pressure in the left eye", "setting": "5.0 mg/mL group, 1 hour after administration", "value": 11.33, "unit": "mmHg"},
      {"measurement": "Intraocular pressure in the left eye", "setting": "5.0 mg/mL group, 2 hours after administration", "value": 11.42, "unit": "mmHg"},
      {"measurement": "Intraocular pressure in the left eye", "setting": "5.0 mg/mL group, 4 hours after administration", "value": 12.63, "unit": "mmHg"},
      {"measurement": "Intraocular pressure in the left eye", "setting": "5.0 mg/mL group, 6 hours after administration", "value": 12.75, "unit": "mmHg"},
      {"measurement": "Intraocular pressure in the left eye", "setting": "5.0 mg/mL group, 8 hours after administration", "value": 13.29, "unit": "mmHg"},
      {"measurement": "Intraocular pressure in the left eye", "setting": "5.0 mg/mL group, 10 hours after administration", "value": 14.08, "unit": "mmHg"},
      {"measurement": "Intraocular pressure in the left eye", "setting": "5.0 mg/mL group, before administration", "value": 11.79, "unit": "mmHg"},
      {"measurement": "Intraocular pressure in the right eye", "setting": "5.0 mg/mL in right eye, 1 hour after administration", "value": 7.83, "unit": "mmHg"},
      {"measurement": "Intraocular pressure in the right eye", "setting": "5.0 mg/mL in right eye, 2 hours after administration", "value": 7.00, "unit": "mmHg"},
      {"measurement": "Intraocular pressure in the right eye", "setting": "5.0 mg/mL in right eye, 4 hours after administration", "value": 7.79, "unit": "mmHg"},
      {"measurement": "Intraocular pressure in the right eye", "setting": "5.0 mg/mL in right eye, 6 hours after administration", "value": 8.54, "unit": "mmHg"},
      {"measurement": "Intraocular pressure in the right eye", "setting": "5.0 mg/mL in right eye, 8 hours after administration", "value": 10.13, "unit": "mmHg"},
      {"measurement": "Intraocular pressure in the right eye", "setting": "5.0 mg/mL in right eye, 10 hours after administration", "value": 12.54, "unit": "mmHg"},
      {"measurement": "Intraocular pressure in the right eye", "setting": "5.0 mg/mL in right eye, before administration", "value": 11.75, "unit": "mmHg"},
      {"measurement": "Reduction magnitude of intraocular pressure", "setting": "5.0 mg/mL, 1 hour after administration", "value": 3.5, "unit": "mmHg"},
      {"measurement": "Reduction magnitude of intraocular pressure", "setting": "5.0 mg/mL, 2 hours after administration", "value": 4.42, "unit": "mmHg"},
      {"measurement": "Reduction magnitude of intraocular pressure", "setting": "5.0 mg/mL, 4 hours after administration", "value": 4.84, "unit": "mmHg"},
      {"measurement": "Reduction magnitude of intraocular pressure", "setting": "5.0 mg/mL, 6 hours after administration", "value": 4.21, "unit": "mmHg"},
      {"measurement": "Reduction magnitude of intraocular pressure", "setting": "5.0 mg/mL, 8 hours after administration", "value": 3.16, "unit": "mmHg"},
      {"measurement": "Reduction magnitude of intraocular pressure", "setting": "5.0 mg/mL, 10 hours after administration", "value": 1.54, "unit": "mmHg"},
      {"measurement": "Reduction magnitude of intraocular pressure", "setting": "5.0 mg/mL, before administration", "value": 0.04, "unit": "mmHg"},
      {"measurement": "Intraocular pressure in the left eye", "setting": "10.0 mg/mL group, 1 hour after administration", "value": 12.08, "unit": "mmHg"},
      {"measurement": "Intraocular pressure in the left eye", "setting": "10.0 mg/mL group, 2 hours after administration", "value": 12.08, "unit": "mmHg"},
      {"measurement": "Intraocular pressure in the left eye", "setting": "10.0 mg/mL group, 4 hours after administration", "value": 12.96, "unit": "mmHg"},
      {"measurement": "Intraocular pressure in the left eye", "setting": "10.0 mg/mL group, 6 hours after administration", "value": 12.38, "unit": "mmHg"},
      {"measurement": "Intraocular pressure in the left eye", "setting": "10.0 mg/mL group, 8 hours after administration", "value": 13.04, "unit": "mmHg"},
      {"measurement": "Intraocular pressure in the left eye", "setting": "10.0 mg/mL group, 10 hours after administration", "value": 13.38, "unit": "mmHg"},
      {"measurement": "Intraocular pressure in the left eye", "setting": "10.0 mg/mL group, before administration", "value": 11.96, "unit": "mmHg"},
      {"measurement": "Intraocular pressure in the right eye", "setting": "10.0 mg/mL in right eye, 1 hour after administration", "value": 7.96, "unit": "mmHg"},
      {"measurement": "Intraocular pressure in the right eye", "setting": "10.0 mg/mL in right eye, 2 hours after administration", "value": 6.42, "unit": "mmHg"},
      {"measurement": "Intraocular pressure in the right eye", "setting": "10.0 mg/mL in right eye, 4 hours after administration", "value": 7.13, "unit": "mmHg"},
      {"measurement": "Intraocular pressure in the right eye", "setting": "10.0 mg/mL in right eye, 6 hours after administration", "value": 8.00, "unit": "mmHg"},
      {"measurement": "Intraocular pressure in the right eye", "setting": "10.0 mg/mL in right eye, 8 hours after administration", "value": 9.42, "unit": "mmHg"},
      {"measurement": "Intraocular pressure in the right eye", "setting": "10.0 mg/mL in right eye, 10 hours after administration", "value": 10.96, "unit": "mmHg"},
      {"measurement": "Intraocular pressure in the right eye", "setting": "10.0 mg/mL in right eye, before administration", "value": 11.33, "unit": "mmHg"},
      {"measurement": "Reduction magnitude of intraocular pressure", "setting": "10.0 mg/mL, 1 hour after administration", "value": 4.12, "unit": "mmHg"},
      {"measurement": "Reduction magnitude of intraocular pressure", "setting": "10.0 mg/mL, 2 hours after administration", "value": 5.66, "unit": "mmHg"},
      {"measurement": "Reduction magnitude of intraocular pressure", "setting": "10.0 mg/mL, 4 hours after administration", "value": 5.83, "unit": "mmHg"},
      {"measurement": "Reduction magnitude of intraocular pressure", "setting": "10.0 mg/mL, 6 hours after administration", "value": 4.38, "unit": "mmHg"},
      {"measurement": "Reduction magnitude of intraocular pressure", "setting": "10.0 mg/mL, 8 hours after administration", "value": 3.62, "unit": "mmHg"},
      {"measurement": "Reduction magnitude of intraocular pressure", "setting": "10.0 mg/mL, 10 hours after administration", "value": 2.42, "unit": "mmHg"},
      {"measurement": "Reduction magnitude of intraocular pressure", "setting": "10.0 mg/mL, before administration", "value": 0.63, "unit": "mmHg"}
    ]}
  ]
}
